Results: patent publication US20260297060A1, “COMPOUNDS FOR THE DEGRADATION OF MUTANT BRAF” (C4 THERAPEUTICS, INC., priority 2023, published 2026)
Like-named read-outs stand apart in the source and are kept apart here.

Tests used:
[1] = target: T1, BRAF V600E (Homo sapiens, UniProt P15056+Q96SW2, V600E); assay: BRAF V600E HiBiT Degradation Assay; format: cell-based
T1 construct: knock-in of the HiBiT tag to the endogenous BRAF V600E locus; host or cells: A375.10 (A375 clonal line, CRISPR HiBiT knock-in at the endogenous BRAF V600E locus)
T1 sequence (P15056 whole entry V600E): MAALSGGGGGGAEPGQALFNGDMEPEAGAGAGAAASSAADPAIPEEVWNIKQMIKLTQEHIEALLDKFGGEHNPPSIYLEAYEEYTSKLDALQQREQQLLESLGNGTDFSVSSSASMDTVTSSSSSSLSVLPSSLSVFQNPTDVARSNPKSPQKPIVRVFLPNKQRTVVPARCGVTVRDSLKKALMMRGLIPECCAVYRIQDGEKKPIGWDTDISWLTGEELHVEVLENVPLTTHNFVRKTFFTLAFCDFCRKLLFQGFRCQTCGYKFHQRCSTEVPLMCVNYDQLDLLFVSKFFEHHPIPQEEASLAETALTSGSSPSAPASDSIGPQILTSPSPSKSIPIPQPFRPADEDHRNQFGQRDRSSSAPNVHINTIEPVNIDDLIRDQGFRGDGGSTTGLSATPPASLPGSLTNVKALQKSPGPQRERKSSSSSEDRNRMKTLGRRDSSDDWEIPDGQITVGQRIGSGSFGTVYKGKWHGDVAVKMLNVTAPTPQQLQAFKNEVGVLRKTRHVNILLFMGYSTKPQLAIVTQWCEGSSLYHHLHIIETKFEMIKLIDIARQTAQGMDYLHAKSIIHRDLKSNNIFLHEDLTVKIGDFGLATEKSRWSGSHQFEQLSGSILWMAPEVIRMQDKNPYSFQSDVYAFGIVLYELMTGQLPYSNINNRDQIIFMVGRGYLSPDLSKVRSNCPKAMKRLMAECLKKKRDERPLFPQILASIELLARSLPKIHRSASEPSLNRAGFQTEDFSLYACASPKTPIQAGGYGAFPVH
T1 sequence (Q96SW2 whole entry): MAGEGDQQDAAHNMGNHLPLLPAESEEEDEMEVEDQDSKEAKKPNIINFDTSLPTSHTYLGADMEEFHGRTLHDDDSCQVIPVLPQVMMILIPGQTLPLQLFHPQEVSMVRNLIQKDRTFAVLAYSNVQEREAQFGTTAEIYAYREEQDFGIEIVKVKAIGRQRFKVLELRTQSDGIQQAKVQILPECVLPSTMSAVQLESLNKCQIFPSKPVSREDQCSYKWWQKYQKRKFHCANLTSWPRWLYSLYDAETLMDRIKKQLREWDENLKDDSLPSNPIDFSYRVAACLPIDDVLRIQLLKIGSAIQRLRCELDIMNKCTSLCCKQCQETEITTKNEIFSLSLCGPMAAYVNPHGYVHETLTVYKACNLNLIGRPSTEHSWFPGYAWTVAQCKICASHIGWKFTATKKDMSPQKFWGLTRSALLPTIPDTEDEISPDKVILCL
T1 sequence (Q16531 whole entry partner): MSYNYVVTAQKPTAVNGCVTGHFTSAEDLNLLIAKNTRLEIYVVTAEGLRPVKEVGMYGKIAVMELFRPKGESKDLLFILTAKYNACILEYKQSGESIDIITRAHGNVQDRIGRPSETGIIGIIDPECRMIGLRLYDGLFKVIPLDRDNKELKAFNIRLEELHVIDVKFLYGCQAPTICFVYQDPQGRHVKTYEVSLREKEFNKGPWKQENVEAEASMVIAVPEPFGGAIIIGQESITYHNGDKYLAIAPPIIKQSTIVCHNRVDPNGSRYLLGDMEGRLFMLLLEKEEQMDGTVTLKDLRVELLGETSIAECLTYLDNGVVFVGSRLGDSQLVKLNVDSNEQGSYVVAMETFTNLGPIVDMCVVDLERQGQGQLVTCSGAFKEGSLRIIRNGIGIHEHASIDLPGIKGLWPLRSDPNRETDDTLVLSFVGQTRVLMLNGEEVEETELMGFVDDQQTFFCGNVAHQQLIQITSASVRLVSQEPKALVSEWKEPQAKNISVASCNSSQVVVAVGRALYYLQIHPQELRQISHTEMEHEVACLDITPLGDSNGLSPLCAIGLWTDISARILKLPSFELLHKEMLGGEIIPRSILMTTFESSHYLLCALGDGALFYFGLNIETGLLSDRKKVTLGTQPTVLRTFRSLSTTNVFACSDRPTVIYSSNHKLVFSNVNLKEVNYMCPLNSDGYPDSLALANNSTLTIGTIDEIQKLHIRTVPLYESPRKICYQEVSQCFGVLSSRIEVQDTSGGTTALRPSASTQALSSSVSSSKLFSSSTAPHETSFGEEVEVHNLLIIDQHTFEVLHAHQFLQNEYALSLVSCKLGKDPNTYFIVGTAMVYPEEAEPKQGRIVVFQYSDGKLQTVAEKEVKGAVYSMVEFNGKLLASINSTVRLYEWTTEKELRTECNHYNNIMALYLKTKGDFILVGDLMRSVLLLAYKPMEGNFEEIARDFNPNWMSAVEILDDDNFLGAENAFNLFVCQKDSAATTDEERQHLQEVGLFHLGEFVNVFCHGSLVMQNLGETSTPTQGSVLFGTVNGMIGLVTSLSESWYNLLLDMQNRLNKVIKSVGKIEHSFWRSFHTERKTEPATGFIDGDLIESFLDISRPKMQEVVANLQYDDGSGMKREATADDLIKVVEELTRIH
Experimental: Compounds of this invention were tested for degradation of mutant BRAF V600E using the HiBiT assay, a luminescence-based assay for quantification of cellular protein levels using the Nano-Glo® HiBiT Lytic Detection System (Catalog No. N3050, Promega, Madison, WI USA). This assay utilizes the HiBiT tag on a protein of interest, which creates a luminescent signal in the presence of a complementing peptide and its substrate, the quantification of which is proportional to the amount of HiBiT-tagged protein in the cell.
The cell line A375, which is homozygous for the BRAF V600E mutation, was purchased from ATCC (Catalog No. CRL-1619, Manassas, VA, USA). A375 cells were engineered to express HiBiT tagged BRAF V600E by CRISPR knock-in of the HiBiT tag to the endogenous BRAF V600E locus, followed by selection of a clonal population containing the appropriate knock-in (referred to here as cell line A375.10). A375.10 cells were maintained at 37° C. in an atmosphere of 5% CO2 in Dulbecco's modified Eagle Medium (DMEM) with high glucose (Catalog No. 11965092), supplemented with 10% fetal bovine serum (FBS; Catalog No. 10437036), and 10 mM HEPES (Catalog No. 15630130), all obtained from Thermofisher Scientific (Waltham, MA, USA). Cell culture flasks and 384-well microplates were acquired from VWR (Radnor, PA, USA).
Test compounds were prepared by dissolving neat compounds in DMSO (Catalog No. D8418, Sigma-Aldrich, Inc., St. Louis, MO, USA) to generate 10 mM stock solutions, which were serially diluted (half log) in DMSO to generate an 11-point dose series (1000× final treatment concentration) in a 384-Well Low Dead Volume Microplate (Catalog No. LP-0200, Labcyte, San Jose, CA, USA). Using the Echo 550 Acoustic Liquid Handler (Labcyte), 30 nL of serially diluted compound solutions were dispensed in duplicate to 384-well TC-treated microplates (Catalog No. 3571, Corning, Glendale, CA, USA) and 30 nL of DMSO was dispensed to control wells. A375.10 cells resuspended in growth media without phenol red (Catalog No. 21063-029, Thermofisher Scientific) were then added to 384-well plates containing the 11-point dose series of compounds in duplicate (maximum 10 μM concentration for final treatment) at a density of 12,000 cells/well in 30 μl. Plates were then spun briefly, and cells were incubated with compound at 37° C. for 2 hours, 6 hours, or 24 hours.
Following the appropriate treatment time, Nano-Glo® HiBiT Lytic Assay reagents were added to the cells per the manufacturer's instructions by adding 30 μl of reagent per well, and the luminescence signal was acquired by plate reader. Cells treated with DMSO only (no test compound treatment) were used as the negative control (N). Media only (no cells added) with Nano-Glo reagent addition was used as the background or positive control (P). The percent response of compound treated samples were calculated by subtracting out the background signal (P) and normalizing to the DMSO control (N) as follows.
% Response=100×(Treated Signal−Average (P))/(Average (N)−Average (P)).
Data were analyzed with a 4-parameter logistic fit to generate sigmoidal dose-response curves. The DC50 is the concentration of compound at which 50% of the cellular BRAF V600E has been degraded. The Emax, or maximum effect of each compound, represents the amount of residual protein remaining in the cell following compound treatment. The IP, or inflection point of the dose-response curve, is the concentration of compound at which 50% of the observed degradation response is achieved.
The experiment was conducted at least once for each compound. If the experiment was conducted multiple times, the data shown in the table is the average of the two or more experiments.

[2] = test system: A375-NRAS^Q61K cells; assay: CTGlo Cell Viability Assay, A375-NRAS^Q61K (A375.11) cells, 96 hours; format: cell-based, human; details: A375.11 (A375-NRAS^Q61K) cells; for CTGlo A375.11 96 hours Emax: lowest % viability achieved
Experimental: Compounds of this invention were tested for their effect on the viability of A375-NRAS^Q61K cells by quantification of ATP using the CellTiter-Glo® 2.0 Cell Viability Assay (Catalog No. G9243, Promega, Madison, WI, USA). This assay produces a luminescent signal in the presence of ATP, which is indicative of metabolically active cells, making the luminescence readout proportional to the number of viable cells.
A375-NRAS^Q61K cells (harboring BRAF homozygous V600E mutation and NRAS homozygous Q61K mutation) were purchased from ATCC (Catalog No. CRL-1619IG-2, Manassas, VA, USA). A375-NRAS^Q61K cells (also referred to here as A375.11) were maintained at 37° C. in an atmosphere of 5% CO2 in Dulbecco's modified Eagle Medium (DMEM) with high glucose (Catalog No. 11965092), supplemented with 10% fetal bovine serum (FBS; Catalog No. 10437036), and 10 mM HEPES (Catalog No. 15630130), all obtained from Thermofisher Scientific (Waltham, MA, USA). Cell culture flasks and 384-well microplates were acquired from VWR (Radnor, PA, USA).
Test compounds were prepared by dissolving neat compounds in DMSO (Catalog No. D8418, Sigma-Aldrich, Inc., St. Louis, MO, USA) to generate 10 mM stock solutions, which were serially diluted (half log) in DMSO to generate an 11-point dose series (1000× final treatment concentration) in a 384-Well Low Dead Volume Microplate (Catalog No. LP-0200, Labcyte, San Jose, CA, USA). Using the Echo 550 Acoustic Liquid Handler (Labcyte), 50 nL of serially diluted compound solutions were dispensed in duplicate to 384-well TC-treated microplates (Catalog No. 3571, Corning, Glendale, CA, USA) and 50 nL of DMSO was dispensed to control wells. A375-NRAS^Q61K cells were resuspended in growth media and added to 384-well plates containing a […] of compounds in duplicate (maximum 10 μM concentration for final treatment) at a density of 250 cells/well in 50 μl. Cells were also plated to a 384-well plate with no compound treatment, to which CellTiter-Glo® reagent was added and luminescence was read right after plating to act as a baseline signal at time of plating (To). Plates treated with compound were then spun briefly, and cells were incubated with compound at 37° C. for 96 hours.
After 96 hours compound treatment, CellTiter-Glo® reagent was added to the cells at 25 μl per well and luminescence was read out on the PHERAstar plate reader (BMG Labtech, Ortenberg, Germany). Cells treated with DMSO only (no test compound treatment) were used as the negative control (N). DMSO treated cells with no CellTiter-Glo® reagent added were used as the background or positive control (P). Viability was determined by subtracting out the average background signal (P) and normalized to the average untreated signal (N) set at 100%.
Data were analyzed with a 4-parameter logistic fit to generate sigmoidal dose-response curves. The half-maximal inhibition of cell growth (GI50) is the concentration at which the fitted curve crosses 50%. The Emax, or maximum effect of each compound, represents the lowest % viability achieved following compound treatment.

[3] = A375.10 cells, BRAF V600E, 2 hours, inflection point, read-out: HiBiT-Degradation A375.10 BRAF 2 hours IP
[4] = A375.10 cells, BRAF V600E, 2 hours, read-out: HiBiT-Degradation A375.10 BRAF 2 hours DC50
[5] = A375.10 cells, BRAF V600E, 2 hours, residual protein remaining
[6] = A375.10 cells, BRAF V600E, 6 hours, inflection point, read-out: HiBiT-Degradation A375.10 BRAF 6 hours IP
[7] = A375.10 cells, BRAF V600E, 6 hours, read-out: HiBiT-Degradation A375.10 BRAF 6 hours DC50
[8] = A375.10 cells, HiBiT, BRAF V600E, 24 hours, read-out: HiBiT-Degradation A375.10 BRAF 24 hours DC50
[9] = A375.10 cells, HiBiT, BRAF V600E, 24 hours, read-out: HiBiT-Degradation A375.10 BRAF 24 hours IP

Row | DC50 [1, 3] | DC50 [1, 4] | HiBiT-Degradation A375.10 BRAF 2 hours Emax [1, 5] | DC50 [1, 6] | DC50 [1, 7] | Emax ([1]; A375.10 cells, BRAF V600E, 6 hours, residual protein remaining, read-out: HiBiT-Degradation A375.10 BRAF 6 hours Emax) | DC50 [1, 8] | Emax ([1]; A375.10 cells, HiBiT, BRAF V600E, 24 hours, read-out: HiBiT-Degradation A375.10 BRAF 24 hours Emax) | DC50 [1, 9] | GI50 [2] | HiBiT-Degradation A375.10 BRAF 2 hours Emax [1] | HiBiT-Degradation A375.10 BRAF 6 hours Emax ([1]; A375.10 cells, BRAF V600E, 6 hours, residual protein remaining) | HiBiT-Degradation A375.10 BRAF 24 hours Emax ([1]; A375.10 cells, HiBiT, BRAF V600E, 24 hours) | SMILES | CTGlo A375.11 96 hours Emax [2]
1 | < 1000 nM | < 1000 nM | *** (<=50%) | < 1000 nM | < 1000 nM | < 50% | < 1000 nM | < 50% | < 1000 nM | 1000 to 10000 nM |  |  |  | CCN(C)S(=O)(=O)Nc1ccc(F)c(Nc2ccc3ncn([C@H]4COC5(CCN(C6CCC(c7ccc(NC8CCC(=O)NC8=O)cc7F)CC6)CC5)C4)c(=O)c3c2)c1C#N (single isomer, unassigned) [Compound 57] | ** (<90% and >50%)
2 | < 1000 nM | < 1000 nM |  |  |  |  |  |  |  | 1000 to 10000 nM | ** (<90% and >50%) |  |  | CCN(C)S(=O)(=O)Nc1ccc(F)c(Oc2ccc3ncc([C@H]4COC5(CCN(C6CCC(c7ccc(NC8CCC(=O)NC8=O)cc7F)CC6)CC5)C4)nc3c2)c1C#N (single isomer, unassigned) [Compound 59] | ** (<90% and >50%)
3 | < 1000 nM | 1000 to 10000 nM |  |  |  |  |  |  |  | > 10000 nM | ** (<90% and >50%) |  |  | CCN(C)S(=O)(=O)Nc1ccc(F)c(Oc2ccc3ncc([C@@H]4COC5(CCN(C6CCC(c7ccc(NC8CCC(=O)NC8=O)cc7F)CC6)CC5)C4)nc3c2)c1C#N (single isomer, unassigned) [Compound 61] | ** (<90% and >50%)
4 | < 1000 nM | < 1000 nM | *** (<=50%) | < 1000 nM | < 1000 nM |  | < 1000 nM |  | < 1000 nM | < 1000 nM |  | *** (<=50%) | *** (<=50%) | CCN(C)S(=O)(=O)Nc1ccc(F)c(Oc2ccc3ncn([C@H]4COC5(CCN(C6CC(c7ccc(NC8CCC(=O)NC8=O)cc7F)C6)CC5)C4)c(=O)c3c2)c1C#N (single isomer, unassigned) [Compound 63] | *** (<=50%)
